Data reported in US9255118B2, “Light induced drug release” (UNIVERSITEIT LEIDEN, priority 2010, dated 2016).
Each block holds one compound with its values, some of them ahead of it.

Columns and labels:
[1] = background statement; cited from earlier work
[2] = Complex stability at human body temperature in the dark (1H NMR in D2O, 37° C.); format: physicochemical; conditions: for Conversion of Ru compounds into their aqua complexes: +37° C.
Method: D2O (0.80 mL) was added to each of the NMR tubes and ^1H NMR spectra were taken. The NMR tubes were put into closed pressure tubes and kept in the dark at 37° C. to check the stability of the Ru—Cl and Ru—S bond. ^1H NMR spectra of each of the tubes were taken after 4 hours, 1 day, 3 days and 3 weeks. The NMR tubes were kept in an ice bath during transport in order to temporarily freeze the reaction. In the case of [Ru(terpy)(bpy)(Cl)](Cl), an equilibrium had been reached after four hours, characterized by 10% of [Ru(terpy)(bpy)(Cl)](Cl) and 90% of [Ru(terpy)(bpy)(H2O)](Cl)2.
The stability of the Ru—S bond was measured at human body temperature and in the dark. To do so, compound [Ru(tpy)(apy)Cl]Cl, and [Ru(tpy)(apy)(AMet)]Cl2, (compound [13](Cl)2) were dissolved in D2O and kept in the dark at 37° C. The release of the aqua species was measured by ^1H NMR after 4 hours, 1 days, and 3 weeks. […] The stability of the Ru—S bond depends on the nature of the polypyridyl ligands (see Example 2), but in general it is much higher than that of the Ru—Cl bond.

HepG2 cancer cells = assay: WST-1 cell viability test in the dark; format: cell-based; conditions: 1.7 mM, 30 min in the dark, WST-1 normalized to protein content
Method: HepG2 cancer cells were grown in RPMI 1640 medium containing (−) L-glutamine at 37° C. and in an atmosphere of […] and 5% CO2. […] In this experiment, the difference in water solubility between the chlorido and thioether complexes might also play a role, as uptake might be different for both compounds.

[3] = Light-induced cleavage of the Ru-S bond in aqueous solution; format: physicochemical
[4] = 37° C., equilibrium after four hours

Compound: [Cl-].[Cl-].[Cl-].[Ru+3].c1ccc(-c2cccc(-c3ccccn3)n2)nc1 [mer-[Ru(terpy)(Cl)3]]
solubility in water [1]: poorly soluble in water

Compound: [Cl-].[Cl-].[Ru+2].c1ccc(N=Nc2ccccn2)cc1.c1ccc(N=Nc2ccccn2)cc1 [α-[Ru(azpy)2(Cl)2]]
solubility in water [1]: poorly soluble in water

Compound: [Ru(terpy)(apy)(Cl)](Cl) [[Ru(tpy)(apy)(Cl)](Cl)]
Conversion of Ru compounds into their aqua complexes ([2]; 3 weeks): 48% | Conversion of Ru compounds into their aqua complexes ([2]; 4 h): 48% | Conversion of Ru compounds into their aqua complexes ([2]; 1 day): 48%

Compound: [Ru(terpy)(bpy)(Cl)](Cl)
aqua complex [Ru(terpy)(bpy)(H2O)](Cl)2 at equilibrium [2, 4]: 90% | starting chlorido complex at equilibrium [2, 4]: 10% | cell survival reduced by (HepG2 cancer cells): 49%

Compound: [Ru(terpy)(bpy)(D-biotin)](Cl)2 [Compound [7](Cl)2]
cell survival reduced by (HepG2 cancer cells): not reduced

Other lines, results leading:

photosubstitution of the monodentate sulfur ligand ([3]; white light, aqueous solution): photosubstituted by an aqua ligand
Compound: [Ru(terpy)(bpy)(mte)](BF4)2 [Compound [9](BF4)2]

Conversion of Ru compounds into their aqua complexes ([2]; 3 weeks): 46% | Conversion of Ru compounds into their aqua complexes ([2]; 4 h): no sign of cleavage | Conversion of Ru compounds into their aqua complexes ([2]; 4 h, listed as [Ru(tpy)(apy)(AMet)](Cl)2): 0% | Conversion of Ru compounds into their aqua complexes ([2]; 1 day): 21% | photochemical cleavage of the Ru-S bond ([3]; visible light, D2O, 1H NMR and thin layer chromatography): photochemically labile
Compound: [Ru(tpy)(apy)(AMet)]Cl2 [Compound [13](Cl)2]
